This note sets out measurements from patent publication US7208515B2, “Diphenylmethyl compounds useful as muscarinic receptor antagonists” (Theravance, Inc., priority 2004, dated 2007).

Experiment [1] deals with ACh-induced bronchoconstriction. Nature of the experiment: Duration of bronchoprotection in guinea pig model of acetylcholine-induced bronchoconstriction. It is filed as in vivo. Particulars: inhalation, 1.5 hours post-dose. The protocol:
Determination of Duration of Bronchoprotection in Guinea Pig Model of Acetylcholine-Induced Bronchoconstriction
Groups of six male guinea pigs (Duncan-Hartley (HsdPoc:DH) Harlan, Madison, Wis.) weighing between 250 and 350 g were individually identified by cage cards. Throughout the study animals were allowed access to food and water ad libitum.
Test compounds were administered via inhalation over 10 minutes in a whole-body exposure dosing chamber (R&S Molds, San Carlos, Calif.). The dosing chambers were arranged so that an aerosol was simultaneously delivered to 6 individual chambers from a central manifold. Guinea pigs were exposed to an aerosol of a test compound or vehicle (WFI). […] This was measured gravimetrically by comparing pre-and post-nebulization weights of the filled nebulizer.
The bronchoprotective effects of test compounds administered via inhalation were evaluated using whole body plethysmography at 1.5, 24, 48 and 72 hours post-dose.
Forty-five minutes prior to the start of the pulmonary evaluation, each guinea pig was anesthetized with an intramuscular injection of ketamine (43.75 mg/kg), xylazine (3.50 mg/kg) and acepromazine (1.05 mg/kg). […] The depth of anesthesia was monitored and adjusted if the animal responded to pinching of its paw or if the respiration rate was greater than 100 breaths/minute. […]

In experiment [2] the target is T1, hM2 receptor (CHO-K1 cells) (Homo sapiens, UniProt P08172).
T1 construct: expressed in transfected cells; host or cells: CHO-K1 cells
T1 sequence (P08172 1-466): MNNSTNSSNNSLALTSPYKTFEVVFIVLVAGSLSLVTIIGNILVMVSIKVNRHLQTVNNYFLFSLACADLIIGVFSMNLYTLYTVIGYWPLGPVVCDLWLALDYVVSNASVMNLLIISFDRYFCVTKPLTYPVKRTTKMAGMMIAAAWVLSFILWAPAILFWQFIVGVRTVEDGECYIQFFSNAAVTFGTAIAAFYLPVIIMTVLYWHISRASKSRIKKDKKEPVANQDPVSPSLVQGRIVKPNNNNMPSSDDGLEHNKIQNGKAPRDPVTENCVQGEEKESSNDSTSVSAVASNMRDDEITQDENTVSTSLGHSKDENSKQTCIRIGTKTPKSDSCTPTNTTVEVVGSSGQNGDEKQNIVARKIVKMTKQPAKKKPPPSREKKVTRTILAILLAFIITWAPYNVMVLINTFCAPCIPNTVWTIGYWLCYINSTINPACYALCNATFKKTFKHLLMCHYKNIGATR
As to the kind of experiment: Blockade of agonist-mediated [35S]GTPγS binding. The settings on record: CHO-K1 cells expressing the hM2 receptor; read-out: Ki value for blockade of oxotremorine-stimulated [35S]GTPγS binding. The class given is biochemical. How it is done:
B. Blockade of Agonist-Mediated [^35S]GTPγS Binding
In a second functional assay, the functional potency of test compounds can be determined by measuring the ability of the compounds to block oxotremorine-stimulated [^35S]GTPγS binding in CHO-K1 cells expressing the hM2 receptor.
At the time of use, frozen membranes were thawed and then diluted in assay buffer with a final target tissue concentration of 5–10 μg protein per well. The membranes were briefly homogenized using a Polytron PT-2100 tissue disrupter and then added to the assay plates.
The EC90 value (effective concentration for 90% maximal response) for stimulation of [^35S]GTPγS binding by the agonist oxotremorine was determined in each experiment.
To determine the ability of a test compound to inhibit oxotremorine-stimulated [^35S]GTPγS binding, the following was added to each well of 96 well plates: 25 μL of assay buffer with [^35S]GTPγS (0.4 nM), 25 μL of oxotremorine(EC90) and GDP (3 μM), 25 μL of diluted test compound and 25 μL CHO cell membranes expressing the hM2 receptor. […] Microscint-20 scintillation liquid (50 μL) was added to each well, and each plate was sealed and radioactivity counted on a topcounter (PerkinElmer). Data were analyzed by nonlinear regression analysis with the GraphPad Prism Software package (GraphPad Software, Inc., San Diego, Calif.) using the non-linear regression, one-site competition equation. […]

Broadly, the Ki is a measure of affinity in units of concentration, obtained from inhibition or displacement. For `CNCC(=O)NCCCCCN1CC[C@@H](C(C(N)=O)(c2ccccc2)c2ccccc2)C1` [Example 1], the “PD2(50) for ACh-induced bronchoconstriction” value in experiment [1] is on record as “less than 200 μg/mL”. Further, the Ki in experiment [2] was less than 100 nM.
